Source: patent US4132787A, “Pharmaceutical compositions containing a gamma-resorcylic acid derivative in the treatment of thrombosis” (Science Union et Cie, priority 1975, dated 1979)

Columns and labels:
[1] = tested on: erythrocytes from dog; assay: aggregation of erythrocytes induced by Dextran, in vitro, dog erythrocytes; type: cell-based; conditions: at 0.001 and 0.002 molar
Excerpt: (§1) The inhibiting action of compound I on the aggregation of erythrocytes induced by Dextran was evidenced in vitro on erythrocytes from human, dog and rabbit, according to the method of Von Kaulla K.N., ArzneimittelForschung, Drug Research 25 (2) 152-155 (1975).

[2] = tested on: erythrocytes from rabbit; assay: aggregation of erythrocytes induced by Dextran, in vitro, rabbit erythrocytes; type: cell-based; conditions: at 0.001 and 0.002 molar
Excerpt: as §1

[3] = tested on: fibrinolytic activity; assay: fibrinolytic activity in male rats after P.O. administration; type: in vivo; conditions: 25 mg/kg P.O.
Experimental: The fibrinolytic activity was determined on a batch of 7 male rats after administration of 25 mg/kg P.O. of compound I. It was observed that the fibrinolytic activity increases respectively of 14 and 11%, 60 and 90 minutes after the administration of the product. The return to basis values takes place 3 hours after this administration.

[4] = tested on: monomers of fibrin; assay: level of monomers of fibrin in the rabbit after I.V. administration; type: in vivo; conditions: 5 mg/kg I.V.
Excerpt: This decrease reaches 23%, ten minutes after the injection.

[5] = tested on: anti-thrombin III; assay: fibrinolytic inhibitors: anti-thrombin III titrated by radial immuno-diffusion in standard plasma; type: biochemical; conditions: one hour at 37° C.
Experimental: (§2) The main inhibitors of anti-plasminic type, viz. α2 -macroglobulins, α1 -anti-trypsins and anti-thrombin III were titrated according to the radial immuno-diffusion techniques.
(§3) Three concentrations of compound I were incorporated to a pool of standard plasma and incubated for one hour at 37° C. At non-lytic doses by deficiency (suspended standard clots) the compound I gives a decrease of about 10% of α2 -macroglobulins level, a decrease of about 20% of α1 -anti-trypsins level and a decrease of about 10% of anti-thrombin III level.

[6] = tested on: fibrinogen; assay: fibrinogen level in standard plasma incubated with compound I; type: biochemical; conditions: non-lytic doses by excess (high concentrations)
[7] = tested on: erythrocytes from human; assay: aggregation of erythrocytes induced by Dextran, in vitro, human erythrocytes; type: cell-based; conditions: at 0.001 and 0.002 molar
Excerpt: as §1

[8] = toxicity (LD50) in mice, I.V. and P.O.; conditions: mouse, in vivo
[9] = tested on: α1 -anti-trypsins; assay: fibrinolytic inhibitors: α1-anti-trypsins titrated by radial immuno-diffusion in standard plasma; type: biochemical; conditions: one hour at 37° C.
Experimental: as §2, §3

[10] = tested on: platelet stickiness; assay: platelet stickiness, Salzman method, in the rabbit; type: in vivo; conditions: 50 mg/kg P.O., 4 hours after administration
Experimental: By using the Salzman method, J. Lab. Clin. Med. 62, 724 (1963), it was observed that the compound I decreases by 20% the platelet stickiness, 4 hours after the administration of 50 mg/kg P.O. of the product in the rabbit.

[11] = tested on: α2 -macroglobulins; assay: fibrinolytic inhibitors: α2-macroglobulins titrated by radial immuno-diffusion in standard plasma; type: biochemical; conditions: one hour at 37° C.
Experimental: as §2, §3

[12] = tested on: plasmatic clot; assay: retraction of plasmatic clot in vitro; type: biochemical; conditions: concentrations ≥ 1,79 mg/ml of plasma, 60 minutes
Experimental: The inhibiting action of compound I on the retraction of plasmatic clot was evidenced in vitro. At the concentrations ≥ 1,79 mg/ml of plasma, the compound I inhibits totally (100%) the normal retraction of the clot measured for a lapse of 60 minutes.

CCCCCc1cc(O)c(C(=O)O)c(O)c1 [compound I, 4-n-pentyl-6-hydroxy salicylic acid]
inhibition of the aggregation of erythrocytes induced by Dextran [1]: 100% | inhibition of the aggregation of erythrocytes induced by Dextran [2]: 100% | return of fibrinolytic activity to basis values, time after administration [3]: 3 h | increase of fibrinolytic activity ([3]; 60 minutes after administration): 14% | increase of fibrinolytic activity ([3]; 90 minutes after administration): 11% | decrease of the level of monomers of fibrin ([4]; ten minutes after injection): 23% | decrease of the level of monomers of fibrin ([4]; two minutes after injection): 10% | decrease of anti-thrombin III level ([5]; lytic doses): 50% | decrease of anti-thrombin III level ([5]; non-lytic doses by deficiency): about 10% | fibrinogen level [6]: important decrease | inhibition of the aggregation of erythrocytes induced by Dextran [7]: 100% | LD50 ([8]; iv, I.V.): 50 to 100 mg/kg | LD50 ([8]; po, P.O.): 1000 to 1500 mg/kg | decrease of α1 anti-trypsins level ([9]; lytic doses): 80% | decrease of α1 -anti-trypsins level ([9]; non-lytic doses by deficiency): about 20% | decrease of platelet stickiness [10]: 20% | decrease of α2 -macroglobulins level ([11]; lytic doses): about 20% | decrease of α2 -macroglobulins level ([11]; non-lytic doses by deficiency): about 10% | inhibition of the normal retraction of the clot [12]: 100%
